According to paper PMC10035389, “Safety, Tolerability, and Pharmacokinetics of TAK-931, a Cell Division Cycle 7 Inhibitor, in Patients with Advanced Solid Tumors: A Phase I First-in-Human Study” (Cancer Research Communications, 2022):

Test system: advanced solid tumors
Test: Tumor response by RECIST version 1.1
Type: in vivo, human
Parameters: key to Best response, individual patient: PD: progressive disease; PR: partial response; SD: stable disease
Settings: for Duration of SD / Duration PR maintained: 1 patient
Method: DLTs included: cycle 1 grade ≥3 hematologic and non-hematologic events or grade 2 non-hematologic events considered by the investigator to be TAK-931-related, grade 2 ejection fraction decrease, >2 weeks delay in initiating cycle 2 (1 week for schedules D and E), and >50% TAK-931 dose reduction in cycle 1 due to treatment-related adverse events (AEs; see Supplementary Materials and Methods for full DLT criteria). Toxicity was evaluated by NCI Common Terminology Criteria for Adverse Events (version 4.03). Tumor response was measured using the RECIST (version 1.1) ([16]). Serial blood samples for pharmacokinetic analysis were collected during cycle 1 on days 1 and 7 (schedule B), 1 and 8 (schedules A and D), or 1 and 9 (schedule E). Pharmacokinetic parameters were estimated from concentration–time profiles using noncompartmental methods with WinNonlin® Phoenix™ version 8.1 (Certara, Princeton, NJ). pMCM2 was detected semiquantitatively by IHC of histologic sections of formalin-fixed, paraffin-embedded skin and tumor biopsies using anti-pMCM2 (3378-1, Epitomics Inc.; ref. [15]). Quantitative image analysis determined pMCM2 levels as “histologic score nuclei (H-score).” Skin punch biopsies (2–4 mm) were obtained during screening or predose on cycle 1, day 1 and for patients in schedules A, B, and D, postdose on any drug dosing day after 3 consecutive dosing days in cycle 1. A postdose skin biopsy was obtained on day 9 in schedule E. Fresh tumor biopsy pairs were collected predose and postdose on any dosing day after the completion of 3 consecutive dosing days in cycle 1 from patients who received doses considered to have biological effect.
The safety population included patients who received ≥1 dose of TAK-931. The pharmacodynamic-evaluable population comprised patients from the safety population with a baseline and ≥1 additional postbaseline biopsy sample that was suitable for pMCM2 analysis. The pharmacokinetic-evaluable population included patients with sufficient dosing and TAK-931 concentration–time data to estimate pharmacokinetic parameters. The response-evaluable population included patients in the safety population with measurable disease at baseline and ≥1 postbaseline response assessment.

Structure (SMILES): Cc1[nH]ncc1-c1cc2nc([C@@H]3CC4CCN3CC4)[nH]c(=O)c2s1 [TAK-931, simurosertib]
- Duration of SD (cervical cancer, schedule A (50 mg)): 11.33 months
- Duration of SD (cervical cancer, schedule D (40 mg)): 15.24 months
- Duration PR maintained (cervical squamous cell cancer, schedule A 60 mg): 2.2 months
- Duration PR maintained (duodenal squamous cell cancer, schedule A 30 mg): 2.1 months
- Duration PR maintained (esophageal cancer, schedule B 100 mg): 4.2 months
- Duration PR maintained (esophageal squamous cell cancer, schedule A 50 mg): 2.7 months
- Duration of SD (thymic cancer, schedule A (50 mg)): 10.45 months
- CR (complete response) as best response (Schedule A n = 24): 0 n (%) [95% CI]
- CR (complete response) as best response (Schedule B n = 23): 0 n (%) [95% CI]
- CR (complete response) as best response (Schedule D n = 17): 0 n (%) [95% CI]
- ORR (overall response rate), investigator's assessment (Schedule D n = 17): 0 n (%) [95% CI]
- PR (partial response) as best response (Schedule D n = 17): 0 n (%) [95% CI]
- CR (complete response) as best response (Schedule E n = 11): 0 n (%) [95% CI]
- ORR (overall response rate), investigator's assessment (Schedule E n = 11): 0 n (%) [95% CI]
- PR (partial response) as best response (Schedule E n = 11): 0 n (%) [95% CI]
- Patients achieving a partial response (overall): 5 patients
- Patients with best response of SD (overall): 28 patients
- Share of patients with SD or PR having esophageal, thymic, or cervical cancer (overall): 39%
- Median progression-free survival (overall, 95% confidence interval, 1.94–3.06): 2.2 months
- Overall response rate (ORR) (schedule A): 13%
- Best response, individual patient (schedule A, 30 mg, cancer type Duodenal): PR
- Best response, individual patient (schedule A, 30 mg, cancer type Pancreatic): SD
- Best response, individual patient (schedule A, 30 mg, cancer type Rectal): PD
- Best response, individual patient (schedule A, 40 mg, cancer type Breast): PD
- Best response, individual patient (schedule A, 40 mg, cancer type Rectal): PD
- Best response, individual patient (schedule A, 40 mg, cancer type Unknown): SD
- Best response, individual patient (schedule A, 60 mg, cancer type Cervical): PR
- Best response, individual patient (schedule A, 60 mg, cancer type Ovarian): SD
- Best response, individual patient (schedule A, 60 mg, cancer type Pancreatic): SD
- Overall response rate (ORR) (schedule B): 9%
